Data taken from patent publication US8063008B2, “Enzymatic production of peracids using perhydrolytic enzymes” (E. I. du Pont de Nemours and Company, priority 2005, dated 2011).
“And” between values parts separate entries of the source, which are not always exact repeats. Equal values may be shown once.

Columns and labels:
[1] = Protease-catalyzed perhydrolysis of diacetamide at pH 4.0 (Example 6); assay type: biochemical; conditions: pH 4.0, 500 mM H2O2, 1 mg protease
Method: (§1) Into a 4-mL glass vial with stir bar was added 1 mg protease (Table 6) in 0.050 mL of 50 mM sodium acetate/acetic acid buffer (pH 4.0), 0.900 mL of an aqueous mixture containing either a) acetamide (278 mM) in 50 mM sodium acetate/acetic acid buffer (pH 4.0) or b) diacetamide (278 mM) in 50 mM sodium acetate/acetic acid buffer (pH 4.0), and 0.052 mL 30% hydrogen peroxide (500 mM final concentration). […] A portion of the filtered reaction samples was diluted 1:10 with dd water and analyzed for hydrogen peroxide, and the remaining portion of the sample was directly analyzed for peracid using the HPLC assay method (Table 7).

[2] = Protease-catalyzed perhydrolysis of acetamide at pH 6.5 (Example 9); assay type: biochemical; conditions: pH 6.5, 500 mM H2O2, 1 mg protease
Method: as §1, with “potassium phosphate” for “sodium acetate/acetic acid”, “6.5),” for “4.0),”, “6.5)” for “4.0)”, “10).” for “7).”

[3] = Protease-catalyzed perhydrolysis of diacetamide at pH 6.5 (Example 9); assay type: biochemical; conditions: pH 6.5, 500 mM H2O2, 1 mg protease
Method: as §1, with “potassium phosphate” for “sodium acetate/acetic acid”, “6.5),” for “4.0),”, “6.5)” for “4.0)”, “10).” for “7).”

[4] = Protease-catalyzed perhydrolysis of acetamide at pH 4.0 (Example 6); assay type: biochemical; conditions: pH 4.0, 500 mM H2O2, 1 mg protease
Method: as §1

[5] = Protease-catalyzed perhydrolysis of triacetin at pH 6.5 (Example 8); assay type: biochemical; conditions: pH 6.5, 500 mM H2O2, 1 mg protease
Method: The analytical procedure described by U. Karst et al. (Anal. Chem., 69 (17):3623-3627 (1997)) was employed, as described herein, for analysis of product mixtures containing peracid and hydrogen peroxide. Briefly, the concentration of peracetic acid (PAA) in analyzed samples ranged from 0.025 mM-10 mM, and the concentration of H2O2 ranged from 0.075 mM-3 mM. Reaction mixtures containing peracid and/or hydrogen peroxide were, if necessary prior to analysis, diluted to produce a concentration of peracid or peroxide in these ranges. Into a 4-mL vial was placed 0.100 mL of 20 mM methyl p-tolyl sulfide (MTS) in acetonitrile, 0.300 mL of distilled and deionized water (dd) and 0.100 mL of sample solution (undiluted or diluted with dd water by a factor of up to 1:25 for analysis of peracid), or 0.100 mL of 20 mM MTS in acetonitrile and 0.390 mL of dd water were added to 0.010 mL of a 1:10 dilution of sample solution (for analysis of hydrogen peroxide). After a reaction time of 10 minutes (in the dark, with no stirring), 0.400 mL CH3CN and 0.100 mL of 40-mM triphenylphosphine (TPP) in CH3CN were added to start the second derivatization reaction for detection of peroxide. The solution was left standing in the dark for 30 min to complete the assay reaction. At the end of 30 minutes, 0.100 mL of 10 mM N,N-diethyl-m-toluamide (DEET, HPLC external standard) was added and the resulting solution analyzed by HPLC: Supelco Discovery C8 10-cm column with pre-column, 10-μL injection, UV detection at 225 nm, solvent A: acetonitrile, solvent B: deionized water, 1 mL/min gradient as follows: […]
Into a 4-mL glass vial with stir bar was added 1 mg protease (Table 6) in 0.050 mL of 50 mM sodium phosphate buffer (pH 6.5), 0.900 mL of an aqueous mixture containing triacetin (278 mM) in 50 mM phosphate buffer (pH 6.5), and 0.052 mL 30% hydrogen peroxide (500 mM final concentration). After stirring for 5 or 30 minutes at 22° C., a 0.250 mL sample was filtered using a 30,000 NMWL filter (Millipore UltraFree-MC) centrifuged for 2 minute at 12,000 RPM. A portion of the filtered reaction samples was diluted 1:10 with dd water and analyzed for hydrogen peroxide, and the remaining portion of the sample was directly analyzed for peracid using the HPLC assay method (Table 9).

[6] = Protease-catalyzed perhydrolysis of triacetin at pH 4.0 (Example 7); assay type: biochemical; conditions: pH 4.0, 500 mM H2O2, 1 mg protease
Method: as §1, with “triacetin” for “either a) acetamide (278 mM) in 50 mM sodium acetate/acetic acid buffer (pH 4.0) or b) diacetamide”, “8).” for “7).”

E. coli ATCC 11229 = assay: Determination of Minimum Biocidal Concentration (MBC), XTT reduction inhibition (Example 21); assay type: cell-based; conditions: for replicate OD (450 nm): replicates 1-8
From the text: The method described by J. Gabrielson, et al. (J. Microbiol. Methods 50: 63-73 (2002)) was employed for determination of the Minimum Biocidal Concentration (MBC) of peracids, or for determination of the MBC of hydrogen peroxide and enzyme substrates. The assay method is based on XTT reduction inhibition, where XTT ((2,3-bis[2-methoxy-4-nitro-5-sulfophenyl]-5-[(phenylamino)carbonyl]-2H-tetrazolium, inner salt, monosodium salt) is a redox dye that indicates microbial respiratory activity by a change in optical density (OD) measured at 490 nm or 450 nm. However, there are a variety of other methods available for testing the activity of disinfectants and antiseptics including, but not limited to viable plate counts, direct microscopic counts, dry weight, turbidity measurements, absorbance, and bioluminescence (see, for example Brock, Semour S., Disinfection, Sterilization, and Preservation, 5th edition, Lippincott Williams & Wilkins, Philadelphia, Pa., USA; 2001).
The filtered enzyme-generated product mixture was diluted 1:5 with sterile water, and the resulting solution was further diluted with sterile water in four 1:1 serial dilutions to obtain the concentrations of PAA and hydrogen peroxide listed in Table 22.
The 1:5 dilution and four serial dilutions were evaluated for biocidal activity by mixing 0.100 mL of the PAA-containing solution with 0.100 mL of an inoculum containing 2.7×10^6 CFU/mL of E. coli ATCC 11229 (American Type Culture Collection, Manassas, Va.) in Millers LB broth diluted with Butterfield Buffer; eight replicates of each mixture were contained in individual wells of a sterile 96-well microtiter plate. After the resulting cell suspensions were allowed to stand for 10 minutes at room temperature, they were tested for viability using the growth indicator XTT (2,3-bis[2-methoxy-4-nitro-5-sulfophenyl]-5-[(phenylamino)carbonyl]-2H-tetrazolium, inner salt, monosodium salt; CAS RN 111072-31-2) according to the method of Gabrielson et al. (J. Microbiol. Methods, 50:63-73 (2002)).
Separately, the cell inoculum was treated with sterile solutions of triacetin (Table 24) or hydrogen peroxide in 50 mM phosphate buffer (pH 6.5) (Table 25) at the concentrations present in each of the biocide dilutions in Table 23 to determine the MBC for these components of the biocide solution.

Chymopapain: Chymopapain, papaya latex, Sigma C8526
diacetamide (250 mM) peracetic acid (ppm), 5 min ([1]; 5 min): 100 ppm
diacetamide (250 mM) peracetic acid (ppm), 30 min ([1]; 30 min): 131 ppm
acetamide (250 mM) peracetic acid (ppm), 5 min ([2]; 5 min): 94 ppm
acetamide (250 mM) peracetic acid (ppm), 30 min ([2]; 30 min): 12 ppm
diacetamide (250 mM) peracetic acid (ppm), 5 min ([3]; 5 min): 218 ppm
diacetamide (250 mM) peracetic acid (ppm), 30 min ([3]; 30 min): 170 ppm
acetamide (250 mM) peracetic acid (ppm), 5 min ([4]; 5 min): 66 ppm
acetamide (250 mM) peracetic acid (ppm), 30 min ([4]; 30 min): 65 ppm
triacetin (250 mM) peracetic acid (ppm), 5 min ([5]; 5 min): 69 ppm
triacetin (250 mM) peracetic acid (ppm), 30 min ([5]; 30 min): 167 ppm
triacetin (250 mM) peracetic acid (ppm), 5 min ([6]; 5 min): 72 ppm
triacetin (250 mM) peracetic acid (ppm), 30 min ([6]; 30 min): 57 ppm

CC(=O)OO [Commercially-Available Peracetic Acid, peracetic acid, reference compound]
Minimum Biocidal Concentration (MBC) (E. coli ATCC 11229; E. coli ATCC 11229, 1.35×10^6 CFU/mL, 10 minutes at room temperature, XTT, six-log kill, listed as commercial source of peracetic acid): > 2.3 ppm
blank-corrected mean OD (E. coli ATCC 11229; commercial PAA 1.15 ppm): 1.138
mean replicate OD (450 nm) (E. coli ATCC 11229; commercial PAA 1.15 ppm): 1.410
replicate OD (450 nm) (E. coli ATCC 11229; commercial PAA 1.15 ppm): 1.343 and 1.377 and 1.368 and 1.378 and 1.324 and 1.386 and 1.734 and 1.367
blank-corrected mean OD (E. coli ATCC 11229; commercial PAA 2.3 ppm): 0.026
mean replicate OD (450 nm) (E. coli ATCC 11229; commercial PAA 2.3 ppm): 0.298
replicate OD (450 nm) (E. coli ATCC 11229; commercial PAA 2.3 ppm): 0.292 (2×) and 0.291 and 0.294 and 0.303 (2×) and 0.318 and 0.288
blank-corrected mean OD (E. coli ATCC 11229; commercial PAA 4.7 ppm): 0.027
mean replicate OD (450 nm) (E. coli ATCC 11229; commercial PAA 4.7 ppm): 0.298
replicate OD (450 nm) (E. coli ATCC 11229; commercial PAA 4.7 ppm): 0.294 (2×) and 0.295 and 0.298 and 0.293 and 0.304 and 0.310 and 0.297
blank-corrected mean OD (E. coli ATCC 11229; commercial PAA 9.4 ppm): 0.024
mean replicate OD (450 nm) (E. coli ATCC 11229; commercial PAA 9.4 ppm): 0.295
replicate OD (450 nm) (E. coli ATCC 11229; commercial PAA 9.4 ppm): 0.290 and 0.294 (2×) and 0.291 and 0.299 and 0.295 and 0.301 and 0.296
blank-corrected mean OD (E. coli ATCC 11229; commercial PAA 18.75 ppm): 0.024
mean replicate OD (450 nm) (E. coli ATCC 11229; commercial PAA 18.75 ppm): 0.295
replicate OD (450 nm) (E. coli ATCC 11229; commercial PAA 18.75 ppm): 0.289 and 0.288 and 0.296 (2×) and 0.294 and 0.300 and 0.306 and 0.292
